Laboratory results from ChEMBL document CHEMBL4020767, “Structural insight into the active site of mushroom tyrosinase using phenylbenzoic acid derivatives” (Bioorg Med Chem Lett, 2017).

Molecular target: Mushroom tyrosinase (Agaricus bisporus, UniProt O42713+Q00024+C7FF04+C7FF05)
Test: Inhibition of mushroom tyrosinase […] measured at 60 secs interval for 25 times

IC50 [µM] | SMILES
63.24 | O=C(O)c1ccc(-c2ccccc2)cc1
15.3 | COc1ccc(-c2ccc(C(=O)O)cc2)cc1
6.97 | O=C(O)c1cccc(-c2ccccc2)c1
> 100 | O=C(O)c1ccccc1-c1ccccc1
15.3 | COc1ccc(-c2cccc(C(=O)O)c2)cc1
100.18 | O=C(O)c1ccccc1-c1ccc(O)cc1
10.59 | O=C(O)c1cccc(-c2ccc(O)cc2)c1
> 100 | COc1ccc(-c2ccccc2C(=O)O)cc1
14.7 | O=C(O)c1ccc(-c2ccc(O)cc2)cc1
